From PMC7645423, “Chemical composition and biological effects of kratom (Mitragyna speciosa): In vitro studies with implications for efficacy and drug interactions” (Scientific Reports, 2020)
Entries after “also recorded” stand apart in the source; their conditions may differ.

Columns and labels:
[1] = target: T1, human κ-opioid receptor (Homo sapiens, UniProt P41145); assay: biochemical; format: binding
T1 construct: expressed in transfected cells

[2] = target: T2, human δ-opioid receptor (Homo sapiens, UniProt P41143); assay: Competitive radioligand binding, δ-opioid receptor; conditions: for Ki: competitive binding against 3H-deltorphin, HEK293 cell membranes, minimum of three replicates, read-out: Receptor binding affinity (Ki ± SEM, nM) δ-opioid; for Affinity at δ-opioid receptor (in words): competitive radioligand binding, HEK293
T2 construct: expressed in transfected cells

[3] = target: hMOR (Homo sapiens, UniProt P35372); assay: cell-based; format: cell-based; conditions: for Emax: CHO-K1, read-out: cAMP accumulation Emax %
[4] = target: T3, µ-opioid receptor (Homo sapiens, UniProt P35372); format: cell-based
[5] = target: T3, µ-opioid receptor; assay: biochemical; format: binding; parameters: expressed in transfected cells
[6] = target: CYP3A (Homo sapiens, UniProt P08684); assay: CYP inhibition in human liver microsomes, midazolam 1′-hydroxylation; conditions: for Inhibition of CYP3A activity (in words): human liver microsomes, extracts 2, 10, 20 µg/mL, alkaloids 1, 10, 100 µM
[7] = target: CYP2C9 (Homo sapiens, UniProt P11712); assay: CYP inhibition in human liver microsomes, diclofenac 4′-hydroxylation; conditions: for Inhibition of CYP2C9 activity (in words): human liver microsomes, extracts 2, 10, 20 µg/mL, alkaloids 1, 10, 100 µM
[8] = target: CYP2D6 (Homo sapiens, UniProt P10635); assay: CYP inhibition in human liver microsomes, dextromethorphan O-demethylation; conditions: for Inhibition of CYP2D6 activity (in words): human liver microsomes, extracts 2, 10, 20 µg/mL, alkaloids 1, 10, 100 µM
[9] = test system: human µ-opioid receptor (hMOR); conditions: cited from earlier work

T1 sequence (P41145 whole entry): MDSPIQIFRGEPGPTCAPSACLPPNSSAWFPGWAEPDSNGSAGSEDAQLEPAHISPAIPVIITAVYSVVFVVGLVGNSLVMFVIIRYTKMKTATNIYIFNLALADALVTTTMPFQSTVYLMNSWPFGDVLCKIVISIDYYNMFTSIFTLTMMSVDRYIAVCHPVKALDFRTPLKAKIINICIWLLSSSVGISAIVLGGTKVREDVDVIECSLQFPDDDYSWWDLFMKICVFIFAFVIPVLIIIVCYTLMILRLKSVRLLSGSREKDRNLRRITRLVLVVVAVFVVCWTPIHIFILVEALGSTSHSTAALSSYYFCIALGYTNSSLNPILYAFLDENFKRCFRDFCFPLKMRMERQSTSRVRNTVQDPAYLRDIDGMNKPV
Sequence of CYP2C9 (P11712 whole entry): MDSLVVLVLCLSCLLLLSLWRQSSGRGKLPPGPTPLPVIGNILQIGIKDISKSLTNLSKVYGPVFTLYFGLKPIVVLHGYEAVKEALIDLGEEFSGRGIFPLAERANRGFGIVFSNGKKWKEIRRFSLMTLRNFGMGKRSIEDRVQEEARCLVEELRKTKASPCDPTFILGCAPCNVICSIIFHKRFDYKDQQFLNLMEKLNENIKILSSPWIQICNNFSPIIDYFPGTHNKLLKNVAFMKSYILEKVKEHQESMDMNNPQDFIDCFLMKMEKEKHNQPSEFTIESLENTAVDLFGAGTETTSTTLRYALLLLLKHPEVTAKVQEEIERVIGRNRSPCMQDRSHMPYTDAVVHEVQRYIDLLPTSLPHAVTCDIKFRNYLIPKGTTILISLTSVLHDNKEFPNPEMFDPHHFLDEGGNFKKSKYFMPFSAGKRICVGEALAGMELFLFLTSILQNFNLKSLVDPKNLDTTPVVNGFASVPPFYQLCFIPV
Sequence of CYP3A (P08684 2-503): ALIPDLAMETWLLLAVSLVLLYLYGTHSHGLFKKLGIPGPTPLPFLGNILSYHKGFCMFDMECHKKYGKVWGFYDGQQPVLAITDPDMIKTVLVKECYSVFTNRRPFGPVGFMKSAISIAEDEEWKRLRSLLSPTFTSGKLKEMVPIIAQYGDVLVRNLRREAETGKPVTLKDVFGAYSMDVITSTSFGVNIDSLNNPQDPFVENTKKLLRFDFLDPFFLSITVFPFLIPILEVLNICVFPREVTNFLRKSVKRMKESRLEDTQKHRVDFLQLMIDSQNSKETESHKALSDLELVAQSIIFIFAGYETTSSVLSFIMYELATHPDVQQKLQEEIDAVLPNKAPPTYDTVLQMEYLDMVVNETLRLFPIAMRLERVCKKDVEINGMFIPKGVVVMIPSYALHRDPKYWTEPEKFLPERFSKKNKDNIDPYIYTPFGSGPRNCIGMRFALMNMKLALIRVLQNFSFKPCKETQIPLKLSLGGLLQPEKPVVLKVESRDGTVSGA
T3 sequence (P35372 whole entry): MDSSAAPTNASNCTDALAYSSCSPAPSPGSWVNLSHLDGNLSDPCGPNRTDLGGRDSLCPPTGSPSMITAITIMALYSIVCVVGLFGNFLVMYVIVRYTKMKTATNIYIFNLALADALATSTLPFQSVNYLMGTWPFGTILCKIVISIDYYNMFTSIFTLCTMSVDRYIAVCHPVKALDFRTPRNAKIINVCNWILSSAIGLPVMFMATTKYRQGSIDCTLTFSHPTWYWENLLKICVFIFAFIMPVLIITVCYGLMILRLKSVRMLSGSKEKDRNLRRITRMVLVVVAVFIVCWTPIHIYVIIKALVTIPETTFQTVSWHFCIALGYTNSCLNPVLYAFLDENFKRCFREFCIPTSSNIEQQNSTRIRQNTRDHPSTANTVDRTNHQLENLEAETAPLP
Sequence of hMOR (P35372 whole entry): as above
Sequence of CYP2D6 (P10635 whole entry): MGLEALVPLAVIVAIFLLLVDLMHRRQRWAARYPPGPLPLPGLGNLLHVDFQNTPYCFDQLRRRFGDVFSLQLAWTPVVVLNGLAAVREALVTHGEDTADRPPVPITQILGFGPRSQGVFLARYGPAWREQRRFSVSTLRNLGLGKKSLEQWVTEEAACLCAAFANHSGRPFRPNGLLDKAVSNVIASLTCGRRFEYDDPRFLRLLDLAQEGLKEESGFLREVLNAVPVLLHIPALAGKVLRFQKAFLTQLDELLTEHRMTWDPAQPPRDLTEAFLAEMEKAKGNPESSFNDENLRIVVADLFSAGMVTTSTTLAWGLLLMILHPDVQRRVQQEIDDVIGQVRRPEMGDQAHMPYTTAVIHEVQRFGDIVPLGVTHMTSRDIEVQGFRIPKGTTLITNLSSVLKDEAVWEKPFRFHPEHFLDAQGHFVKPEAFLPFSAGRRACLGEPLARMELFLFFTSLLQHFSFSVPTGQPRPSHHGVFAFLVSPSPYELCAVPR
T2 sequence (P41143 whole entry): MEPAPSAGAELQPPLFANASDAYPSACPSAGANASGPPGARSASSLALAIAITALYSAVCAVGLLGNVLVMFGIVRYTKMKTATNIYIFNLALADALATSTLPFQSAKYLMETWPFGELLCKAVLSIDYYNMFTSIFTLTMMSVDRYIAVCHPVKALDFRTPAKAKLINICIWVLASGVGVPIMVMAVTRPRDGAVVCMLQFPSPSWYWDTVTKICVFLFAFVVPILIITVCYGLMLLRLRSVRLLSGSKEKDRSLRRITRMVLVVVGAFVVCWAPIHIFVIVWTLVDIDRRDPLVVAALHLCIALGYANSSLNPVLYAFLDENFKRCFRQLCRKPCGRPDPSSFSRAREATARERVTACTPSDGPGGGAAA

SMILES | Affinity at ƙ-opioid receptor (in words) [1] | Ki [1] [µM] | Ki [2] [nM] | Affinity at δ-opioid receptor (in words) [2] | EC50 [3] [µM] | Inhibition of forskolin-stimulated cAMP accumulation (in words) [3] | Emax [3] [%] | β-arrestin-2 recruitment (in words) [4] | Affinity at µ-opioid receptor (in words) [5] | Ki [5] [µM] | Inhibition of CYP3A activity (in words) [6] | Inhibition of CYP2C9 activity (in words) [7] | Inhibition of CYP2D6 activity (in words) [8] | IC50 at 2 min ([6]; human, microsomes, pH 7.4) [µM] | IC50 [7] [µM] | IC50 [8] [µM] | Affinity at the μ-opioid receptor compared to mitragynine [9]
CC[C@@H]1CN2CC[C@]3(C(=O)Nc4cccc(O)c43)[C@H]2C[C@@H]1/C(=C\OC)C(=O)OC [Speciofoline, speciofoline] | did not exhibit appreciable affinity | > 10 | > 10000 | did not exhibit appreciable affinity | 4.24 ± 2.93 | has no effect | 12.2 ± 3.5 | fail to recruit β-arrestin-2 | did not exhibit appreciable affinity | > 10 | concentration-dependent inhibition | concentration-dependent inhibition | concentration-dependent inhibition |  |  |  | 
CC[C@@H]1CN2CCc3c([nH]c4cccc(OC)c34)[C@@H]2C[C@@H]1/C(=C\OC)C(=O)OC [Mitragynine, mitragynine] | moderate affinity | 0.482 ± 0.029 | > 10000 |  |  | partially inhibit cAMP accumulation |  | fail to recruit β-arrestin-2 | moderate affinity |  | concentration-dependent inhibition | concentration-dependent inhibition | stronger inhibition than speciofoline; also recorded: concentration-dependent inhibition | 10 to 100 | 10 to 100 | ~1 | 
C[C@@H](NC(=O)[C@@H](N)Cc1ccc(O)cc1)C(=O)NCC(=O)N(C)[C@@H](Cc1ccccc1)C(=O)NCCO [DAMGO, reference compound] |  |  |  |  |  | fully inhibit cAMP accumulation | 86.2 ± 1.8 | effectively recruit β-arrestin-2 |  |  |  |  |  |  |  |  | 
CC[C@@H]1CN2CC[C@@]3(O)C(=Nc4cccc(OC)c43)[C@@H]2C[C@@H]1/C(=C\OC)C(=O)OC [7-Hydroxymitragynine, 7-hydroxymitragynine] | moderate affinity |  |  | moderate affinity |  | partially inhibit cAMP accumulation |  | fail to recruit β-arrestin-2 | strong affinity |  | weak inhibitor; also recorded: concentration-dependent inhibition | weak inhibitor; also recorded: concentration-dependent inhibition | moderate inhibitor; also recorded: concentration-dependent inhibition |  |  |  | approximately fivefold greater affinity
